Assay results from patent US20240239765A1, “GLYCINE N-METHYLTRANSFERASE SPECIFIC ENHANCER AND PREPARATION METHOD AND USES THEREOF” (KAOHSIUNG MEDICAL UNIVERSITY, priority 2020, published 2024).
Blank lines part the entries; values can stand above or below the molecule they belong to.

Key:
DU145 = assay: Cell viability, prostate cancer cell line DU145; assay type: cell-based; conditions: Homo sapiens, DU-145
GNMT mRNA = assay: Endogenous GNMT mRNA in Huh7 cells (qRT-PCR); assay type: cell-based, Human
Protocol: (§1) RNA was isolated by using Trizol reagent (Life Technologies) according to the manufacturer's protocol. Cellular RNA was reverse transcribed into complementary DNA using a SuperScript II RNase H-Reverse Transcriptase Kit (Life Technologies). PCR reactions were carried out using a Super Script II Reverse Transcriptase Kit (Invitrogen Inc., Carlsbad, CA, USA) on an Applied Biosystems Step-One-plus real-time PCR system (Applied Biosystems, Foster City, CA, USA). The mRNA level of TATA-box binding protein (TBP) was used as an internal control. The primer pairs used for qRT-PCR were: • TBP forward: SEQ ID NO: 1, • reverse: SEQ ID NO: 2, • MYC forward: SEQ ID NO: 3, • reverse: SEQ ID NO: 4, • p21 forward: SEQ ID NO: 5, • reverse: SEQ ID NO: 6, • p27 forward: SEQ ID NO: 7, • reverse: SEQ ID NO: 8, • GNMT forward: SEQ ID NO: 9, and • reverse: SEQ ID NO: 10.

PANC1 = assay: Cell viability, pancreatic cancer cell line PANC1; assay type: cell-based; conditions: Homo sapiens, PANC-1; PANC1, pancreas
Protocol: (§2) Human liver cancer cell lines (Huh7 and HepG2), human pancreatic cancer cell line (PANC1) and prostate cancer cell line (PC3) were cultured in Dulbecco's modified Eagle's medium (DMEM) supplemented with 10% fetal bovine serum (FBS) (HyClone, Logan, UT, USA), L-glutamine (2 mM), streptomycin (100 μg/mL), penicillin (100 U/mL) and nonessential amino acids (0.1 mM). Human pancreatic cancer cell line BxPC3 was cultured in the medium of Roswell Park Memorial Institute (RPMI) 1640 with the same supplements as in DMEM. All cell lines were maintained at 37 °C in a humidified CO2 incubator. H7GPL stable cells established by lentiviral-system was grown in DMEM supplemented with 1 μg/mL puromycin. The sorafenib were purchased from Sigma-Aldrich (St Louis, MO, USA).
(§3) Huh7, HepG2, PANC1, PC3, and BxPC3 cells were seeded in 96-well plates for 24 hours and exposed to the drugs with various concentrations. AlamarBlue® was added in to the cells and further incubated for 4 hours to assess the cytotoxic effect of the tested drugs. Blank wells (without cells) containing the same amount of test substances were used for background subtraction, and the relative number of viable cells were represented as the percentage of the mean of the relative solvent controls. AlamarBlue® assay (AbD Serotec, Oxford, UK) was used to assess cell viability according to the manufacturer's instructions.

GNMT protein = assay: Endogenous GNMT protein in Huh7 cells (immunoblotting); assay type: cell-based, Human
Protocol: (§4) Cells or xenograft tumors were harvested for lysate preparation by using RIPA buffer containing protease inhibitor cocktail (Roche Molecular Biochemicals) and phosphatase inhibitors (10 mM Na3VO4, 1 mM NaF, 5 mM NaPPi). Protein concentrations were quantified by Bio-Rad Protein Assay (Bio-Rad) and immunoblotting was carried out as previous description (Yen et al., 2012). Anti-MYC (D84C12, Cell Signaling Technology), anti-GNMT (YMAC-Bioteck) and anti-β-actin (AC-15, Sigma-Aldrich) antibodies were used according to the descriptions in manufacturer's instructions.

p21 mRNA = p21 mRNA expression in Huh7 cells (qRT-PCR); assay type: cell-based, Human; conditions: after K117 treatment
Protocol: as §1

Huh7 and HepG2 cells = assay: Colony formation assay; assay type: cell-based, Human
MYC mRNA = MYC mRNA expression in Huh7 cells (qRT-PCR); assay type: cell-based, Human
Protocol: as §1

p27 mRNA = p27 mRNA expression in Huh7 cells (qRT-PCR); assay type: cell-based, Human; conditions: after K117 treatment
Protocol: as §1

Huh7 xenograft tumor = assay type: in vivo
Text: (§5) All animal experiments were reviewed and approved by the Institutional Animal Care and Use Committee of Kaohsiung Medical University, and performed in accordance with relevant guidelines. Five to six-week-old male NOD-SCID mice were subcutaneously injected with Huh7 cells (1×10^6) in the right flank. Upon detection of palpable tumor, mice were randomly grouped and treated with 300 mpk, 100 mpk or 25 mpk of LKY4606D or KYT5397 and drug vehicle orally every day for 28 days. For K117, doses of 10 mpk and 25 mpk were used. For Sorafenib, dose of 25 mpk was used. Tumor growth was monitored (every day or three times per week) by measuring the length (L) and the width (W) of the tumor using Vernier caliper. Tumor volume (TV) was calculated by using the formula: volume=(L×W^2)/2. All drugs were dissolved in 0.5% carboxymethyl cellulose sodium salt.

[1] = tested on: liver cancer cell lines (Huh7, Hep3B, HepG2); assay: Cell proliferation in liver cancer cell lines; assay type: cell-based, Human
Protocol: as §3

[2] = tested on: −1812/+14 GNMT promoter-luciferase reporter cell line H7GPL; assay: GNMT induction capacity assay (GNMT promoter-luciferase reporter, H7GPL cells); assay type: cell-based, Human; conditions: for Relative Luciferase Activity (induction capacity): H7GPL cells
Protocol: A −1812/+14 GNMT promoter-luciferase reporter cell line H7GPL was constructed. For the primary analysis, H7GPL cells seeded in 96-well plates were treated with individual drugs of 10 μM for 24 hours and then were lysed for the luciferase activity assay using Luciferase Assay System (Promega, Madison, WI, USA). Then, the secondary analysis was performed using the compounds with different doses. The same confirmed hits were used for cytotoxicity by using alamarBlue® reagent (AbD serotec, Oxford, UK). The cytotoxicity was measured according to the manufacturer's recommendation. Top hits were used for further studies.

MYC protein = MYC protein in Huh7 xenograft tumors (immunoblotting); assay type: in vivo; conditions: Huh7 xenograft tumors of treated mice
Protocol: as §4
as §5, with “All drugs were dissolved in 0.5% carboxymethyl cellulose sodium salt.” left out

BxPC3 = assay: Cell viability, pancreatic cancer cell line BxPC3; assay type: cell-based; conditions: Homo sapiens, BXPC-3; BxPC3, pancreas
Protocol: as §2, §3

PC3 = assay: Cell viability, prostate cancer cell line PC3; assay type: cell-based; conditions: Homo sapiens, PC-3
Protocol: as §2, §3

GNMT expression / MYC = conditions: pathogenesis of liver cancer, known; cited from earlier work

IC50 (DU145): 40.8 µM | IC50 (PANC1): 2.2 µM | IC50 (BxPC3): 1.2 µM | IC50 (PC3): 15.3 µM
Compound: C/C(=N\NC(=O)c1cccnc1N)c1ccccn1 [K117, N′-(1-(pyridin-2-yl)ethylidene)-2-carbohydrazide]
Endogenous GNMT expression at mRNA level (GNMT mRNA): induced | Endogenous GNMT expression at protein level (GNMT protein): induced | p21 mRNA expression (p21 mRNA): increased | Colony formation (Huh7 and HepG2 cells): reduced the colony formation of Huh7 and HepG2 cells in a dose-dependent manner | MYC mRNA expression (MYC mRNA): suppressed c-Myc mRNA expression dose-dependently | p27 mRNA expression (p27 mRNA): increased | Tumor growth versus control group (Huh7 xenograft tumor; K117 10 mpk and 25 mpk): significant tumor growth reduction | Tumor growth effect compared with Sorafenib (Huh7 xenograft tumor; K117 10 mpk vs Sorafenib 25 mpk): same effect as Sorafenib 25 mpk | Proliferation of liver cancer cells [1]: inhibited proliferation of all tested liver cancer cells in a dose-dependent manner | Relative Luciferase Activity (induction capacity) ([2]; 5.0 μM): 6.52 ± 0.12 | Relative Luciferase Activity (induction capacity) ([2]; 10 μM): 10.36 ± 0.35 | Induction of GNMT expression compared with K78 ([2]; SAR study): more effective than K78 | Induction of luciferase activity / GNMT promoter activity ([2]; dose response (FIG. 2B, 4B)): induced GNMT promoter activity in a dose-dependent manner | MYC protein expression in xenograft tumors (MYC protein): reduced

Compound: O=C(OC[C@H]1O[C@@H](OC(=O)c2cc(O)c(O)c(O)c2)[C@H](OC(=O)c2cc(O)c(O)c(O)c2)[C@@H](OC(=O)c2cc(O)c(O)c(O)c2)[C@@H]1OC(=O)c1cc(O)c(O)c(O)c1)c1cc(O)c(O)c(O)c1 [PGG, 1,2,3,4,6-penta-O-galloyl-Beta-D-glucopyranoside]
GNMT expression / MYC regulation (GNMT expression / MYC): enhanced GNMT expression through MYC downregulation

Compound: CNC(=O)c1cc(Oc2ccc(NC(=O)Nc3ccc(Cl)c(C(F)(F)F)c3)cc2)ccn1 [Sorafenib, sorafenib, reference compound]
Tumor growth versus solvent control (Huh7 xenograft tumor; oral, K78 25, 100, 300 mpk, sorafenib comparison control): most significant difference
